How the values were obtained:
Assay in all cases: Twenty-four hour optical density growth in BHI
Assay type in all cases: cell-based
Porphyromonas gingivalis = details: P gingivalis
Outline: (§1)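 OD630 at 0 h and 24 h; BHI, 37° C, anaerobic; inoculum 1×10^7 CFU/ml; myo-inositol, D-lactitol, D-turanose, N-acetyl-D-mannosamine at 5, 10, 20, 25 μmol/ml final; saccharide-free control. 3 biological × 4 technical replicates, mean of daily means.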

Streptococcus salivarius = details: S salivarius
Streptococcus mutans = details: S mutans
Streptococcus mitis = details: S mitis
Capnocytophaga sputigena = details: C sputigena
Outline: as §1

Veillonella parvula = details: V parvula
Outline: as §1

Actinomyces viscosus = details: A viscosus
Outline: as §1

Streptococcus sobrinus = details: S sobrinus
Fusobacterium nucleatum = details: F nucleatum
Outline: as §1

Prevotella intermedia = details: P intermedia
Outline: as §1

Tannerella forsythia = details: T forsythia
Outline: as §1

[1] = system: Aggregatibacter actinomycetemcomitans; details: A actinomycetemcomitans
S. sanguinis = system: S. sanguinis
Actinomyces naeslundii = details: A naeslundii
Outline: as §1

Streptococcus gordonii = details: S gordonii

With `CC(=O)N[C@H](C=O)[C@@H](O)[C@H](O)[C@H](O)CO` [N-acetyl-D-mannosamine, 2-acetamido-2-deoxy-D-mannose] the “extent of growth: maximal OD630 over 24 hr divided by maximal OD of control (control = 1)” value (Porphyromonas gingivalis; 5 μmol/ml) was 0.8020, the “extent of growth: maximal OD630 over 24 hr divided by maximal OD of control (control = 1)” value (Porphyromonas gingivalis; 10 μmol/ml) was 0.8427 and the “extent of growth: maximal OD630 over 24 hr divided by maximal OD of control (control = 1)” value (Porphyromonas gingivalis; 20 μmol/ml) was 0.9137. The “extent of growth: maximal OD630 over 24 hr divided by maximal OD of control (control = 1)” value (Porphyromonas gingivalis; 25 μmol/ml) was 0.9419, the “extent of growth: maximal OD630 over 24 hr divided by maximal OD of control (control = 1)” value (Streptococcus salivarius; 5 μmol/ml) was 0.8639 and the “extent of growth: maximal OD630 over 24 hr divided by maximal OD of control (control = 1)” value (Streptococcus salivarius; 10 μmol/ml) was 0.8849. For the same compound, the “extent of growth: maximal OD630 over 24 hr divided by maximal OD of control (control = 1)” value (Streptococcus salivarius; 20 μmol/ml) was 0.8460, the “extent of growth: maximal OD630 over 24 hr divided by maximal OD of control (control = 1)” value (Streptococcus salivarius; 25 μmol/ml) was 0.9251 and the “extent of growth: maximal OD630 over 24 hr divided by maximal OD of control (control = 1)” value (Streptococcus mutans; 5 μmol/ml) was 0.8669. For the same compound, the “extent of growth: maximal OD630 over 24 hr divided by maximal OD of control (control = 1)” value (Streptococcus mutans; 10 μmol/ml) was 0.8670, the “extent of growth: maximal OD630 over 24 hr divided by maximal OD of control (control = 1)” value (Streptococcus mutans; 20 μmol/ml) was 0.8300 and the “extent of growth: maximal OD630 over 24 hr divided by maximal OD of control (control = 1)” value (Streptococcus mutans; 25 μmol/ml) was 0.8283. For the same compound, the “extent of growth: maximal OD630 over 24 hr divided by maximal OD of control (control = 1)” value (Streptococcus mitis; 5 μmol/ml) was 1.3409, the “extent of growth: maximal OD630 over 24 hr divided by maximal OD of control (control = 1)” value (Streptococcus mitis; 10 μmol/ml) was 1.3866 and the “extent of growth: maximal OD630 over 24 hr divided by maximal OD of control (control = 1)” value (Streptococcus mitis; 20 μmol/ml) was 1.7155. For the same compound, the “extent of growth: maximal OD630 over 24 hr divided by maximal OD of control (control = 1)” value (Streptococcus mitis; 25 μmol/ml) was 1.7409, the “extent of growth: maximal OD630 over 24 hr divided by maximal OD of control (control = 1)” value (Capnocytophaga sputigena; 5 μmol/ml) was 0.9620 and the “extent of growth: maximal OD630 over 24 hr divided by maximal OD of control (control = 1)” value (Capnocytophaga sputigena; 10 μmol/ml) was 0.9635. The “extent of growth: maximal OD630 over 24 hr divided by maximal OD of control (control = 1)” value (Capnocytophaga sputigena; 20 μmol/ml) was 0.9576, the “extent of growth: maximal OD630 over 24 hr divided by maximal OD of control (control = 1)” value (Capnocytophaga sputigena; 25 μmol/ml) was 0.9554 and the “extent of growth: maximal OD630 over 24 hr divided by maximal OD of control (control = 1)” value (Veillonella parvula; 5 μmol/ml) was 1.0227. For the same compound, the “extent of growth: maximal OD630 over 24 hr divided by maximal OD of control (control = 1)” value (Veillonella parvula; 10 μmol/ml) was 1.0174, the “extent of growth: maximal OD630 over 24 hr divided by maximal OD of control (control = 1)” value (Veillonella parvula; 20 μmol/ml) was 1.0466 and the “extent of growth: maximal OD630 over 24 hr divided by maximal OD of control (control = 1)” value (Veillonella parvula; 25 μmol/ml) was 1.0213. The “extent of growth: maximal OD630 over 24 hr divided by maximal OD of control (control = 1)” value (Actinomyces viscosus; 5 μmol/ml) was 0.8017, the “extent of growth: maximal OD630 over 24 hr divided by maximal OD of control (control = 1)” value (Actinomyces viscosus; 10 μmol/ml) was 0.8753 and the “extent of growth: maximal OD630 over 24 hr divided by maximal OD of control (control = 1)” value (Actinomyces viscosus; 20 μmol/ml) was 0.9225. The “extent of growth: maximal OD630 over 24 hr divided by maximal OD of control (control = 1)” value (Actinomyces viscosus; 25 μmol/ml) was 0.8824, the “extent of growth: maximal OD630 over 24 hr divided by maximal OD of control (control = 1)” value (Streptococcus sobrinus; 5 μmol/ml) was 0.9307 and the “extent of growth: maximal OD630 over 24 hr divided by maximal OD of control (control = 1)” value (Streptococcus sobrinus; 10 μmol/ml) was 0.7794. The “extent of growth: maximal OD630 over 24 hr divided by maximal OD of control (control = 1)” value (Streptococcus sobrinus; 20 μmol/ml) was 0.7737, the “extent of growth: maximal OD630 over 24 hr divided by maximal OD of control (control = 1)” value (Streptococcus sobrinus; 25 μmol/ml) was 0.7857 and the “extent of growth: maximal OD630 over 24 hr divided by maximal OD of control (control = 1)” value (Fusobacterium nucleatum; 5 μmol/ml) was 0.9065. The “extent of growth: maximal OD630 over 24 hr divided by maximal OD of control (control = 1)” value (Fusobacterium nucleatum; 10 μmol/ml) was 0.8477, the “extent of growth: maximal OD630 over 24 hr divided by maximal OD of control (control = 1)” value (Fusobacterium nucleatum; 20 μmol/ml) was 0.9564 and the “extent of growth: maximal OD630 over 24 hr divided by maximal OD of control (control = 1)” value (Fusobacterium nucleatum; 25 μmol/ml) was 0.9193. The “extent of growth: maximal OD630 over 24 hr divided by maximal OD of control (control = 1)” value (Prevotella intermedia; 5 μmol/ml) was 0.9530, the “extent of growth: maximal OD630 over 24 hr divided by maximal OD of control (control = 1)” value (Prevotella intermedia; 10 μmol/ml) was 1.0261 and the “extent of growth: maximal OD630 over 24 hr divided by maximal OD of control (control = 1)” value (Prevotella intermedia; 20 μmol/ml) was 1.0229. The “extent of growth: maximal OD630 over 24 hr divided by maximal OD of control (control = 1)” value (Prevotella intermedia; 25 μmol/ml) was 1.0494, the “extent of growth: maximal OD630 over 24 hr divided by maximal OD of control (control = 1)” value (Tannerella forsythia; 5 μmol/ml) was 0.9742 and the “extent of growth: maximal OD630 over 24 hr divided by maximal OD of control (control = 1)” value (Tannerella forsythia; 10 μmol/ml) was 0.9715. The “extent of growth: maximal OD630 over 24 hr divided by maximal OD of control (control = 1)” value (Tannerella forsythia; 20 μmol/ml) was 0.9706, the “extent of growth: maximal OD630 over 24 hr divided by maximal OD of control (control = 1)” value (Tannerella forsythia; 25 μmol/ml) was 0.9451 and the “extent of growth: maximal OD630 over 24 hr divided by maximal OD of control (control = 1)” value ([1]; 5 μmol/ml) was 1.0637. The “extent of growth: maximal OD630 over 24 hr divided by maximal OD of control (control = 1)” value ([1]; 10 μmol/ml) was 0.9102, the “extent of growth: maximal OD630 over 24 hr divided by maximal OD of control (control = 1)” value ([1]; 20 μmol/ml) was 0.9405 and the “extent of growth: maximal OD630 over 24 hr divided by maximal OD of control (control = 1)” value ([1]; 25 μmol/ml) was 0.8614. The “extent of growth: maximal OD630 over 24 hr divided by maximal OD of control (control = 1)” value (S. sanguinis; 5 μmol/ml) was 0.8350, the “extent of growth: maximal OD630 over 24 hr divided by maximal OD of control (control = 1)” value (S. sanguinis; 10 μmol/ml) was 0.8644 and the “extent of growth: maximal OD630 over 24 hr divided by maximal OD of control (control = 1)” value (S. sanguinis; 20 μmol/ml) was 0.8219. For the same compound, the “extent of growth: maximal OD630 over 24 hr divided by maximal OD of control (control = 1)” value (S. sanguinis; 25 μmol/ml) was 0.8122, the “extent of growth: maximal OD630 over 24 hr divided by maximal OD of control (control = 1)” value (Actinomyces naeslundii; 5 μmol/ml) was 0.9820 and the “extent of growth: maximal OD630 over 24 hr divided by maximal OD of control (control = 1)” value (Actinomyces naeslundii; 10 μmol/ml) was 0.8708. For the same compound, the “extent of growth: maximal OD630 over 24 hr divided by maximal OD of control (control = 1)” value (Actinomyces naeslundii; 20 μmol/ml) was 0.9716, the “extent of growth: maximal OD630 over 24 hr divided by maximal OD of control (control = 1)” value (Actinomyces naeslundii; 25 μmol/ml) was 0.8535 and the “extent of growth: maximal OD630 over 24 hr divided by maximal OD of control (control = 1)” value (Streptococcus gordonii; 5 μmol/ml) was 0.9930. For the same compound, the “extent of growth: maximal OD630 over 24 hr divided by maximal OD of control (control = 1)” value (Streptococcus gordonii; 10 μmol/ml) was 1.0254, the “extent of growth: maximal OD630 over 24 hr divided by maximal OD of control (control = 1)” value (Streptococcus gordonii; 20 μmol/ml) was 0.9827 and the “extent of growth: maximal OD630 over 24 hr divided by maximal OD of control (control = 1)” value (Streptococcus gordonii; 25 μmol/ml) was 1.0015.

— US11419806B2, “Prebiotic oral care methods using a saccharide” (Colgate-Palmolive Company, priority 2013, dated 2022)
